Results: patent US20240423961A1, “1H-1,2,3-TRIAZOLE-4-CARBOXYLIC ACIDS FOR TREATMENT OF HYPEROXALURIA AND KIDNEY STONES” (CANTERO THERAPEUTICS, INC., priority 2021, published 2024)

Assays:
[1] = target: T1, glycolate oxidase (GO) (Homo sapiens, UniProt Q9UJM8); assay: Pharmacokinetic-pharmacodynamic (PK/PD) modeling of GO inhibition; details: PK/PD modeling of Phase 1 data
T1 construct: healthy adult volunteers received single doses of Compound 1a; from tissue; host or cells: liver of healthy adult human volunteers (in vivo, Phase 1 study)
T1 sequence (Q9UJM8 1-370): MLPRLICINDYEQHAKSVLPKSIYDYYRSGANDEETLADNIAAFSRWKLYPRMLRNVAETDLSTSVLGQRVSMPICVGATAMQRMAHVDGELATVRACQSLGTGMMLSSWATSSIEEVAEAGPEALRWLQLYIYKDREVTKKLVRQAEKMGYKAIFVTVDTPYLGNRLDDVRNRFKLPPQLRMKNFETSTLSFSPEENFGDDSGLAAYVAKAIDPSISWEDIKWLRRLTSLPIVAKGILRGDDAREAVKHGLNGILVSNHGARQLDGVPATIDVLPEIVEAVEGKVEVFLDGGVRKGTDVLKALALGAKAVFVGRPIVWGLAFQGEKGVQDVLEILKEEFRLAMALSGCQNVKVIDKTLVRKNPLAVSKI
Excerpt: This study provides dosing and safety information for Compound 1a in patients with PH1 and recurrent stone formers with hyperoxaluria due to hepatic overproduction of oxalate. Pharmacokinetic data supports once daily administration of Compound 1a and rapid onset of action. […] Details of the study are presented in Example 2.

[2] = Phase 1 SAD/MAD study: safety and tolerability (adverse events, vital signs, ECG, laboratory tests); assay type: in vivo, human
Experimental: A Phase 1 clinical study is performed to assess the safety and dosing of Compound 1a. This Phase 1 study consists of two parts. In Part A, healthy adults randomized 3:1 (active:placebo) receive a single dose of orally administered Compound 1a or matching placebo in six (6) ascending dose groups. In Part B, healthy adults randomized 3:1 (active:placebo) received multiple doses of orally administered Compound 1a or matching placebo in six (6) ascending dose groups. Safety and tolerability were assessed by the incidence of adverse events, vital signs, electrocardiograms, and clinical laboratory tests. Pharmacokinetics and pharmacodynamics (changes in plasma and urine glycolate) were measured using validated bioanalytical assays.
Study Design: The study was approved by the Advarra Institutional Review Board (Columbia, MD). All participants provided written informed consent. The trial was conducted at a single center (Celerion, Tempe, Arizona) according to the Good Clinical Practice guidelines of the International Conference on Harmonization and the World Health Organization Declaration of Helsinki. The study was a randomized, double-blind, placebo-controlled, single and multiple ascending dose study. The primary objective of the study was to evaluate the safety and tolerability of single and multiple doses of Compound 1a administered to healthy adult volunteers. The secondary objectives were to characterize the pharmacokinetics (PK) of Compound 1a and to describe the pharmacodynamic (PD) properties in healthy adult volunteers. The study also evaluated the effect of food on the PK of Compound 1a.
Subject disposition: Six cohorts of 6 to 8 subjects each (N=up to 48) were administered single doses of 40, 120, 360, 1,000, 2,000, and 3,000 mg of Compound 1a in Part A under fasting conditions. Following a 2-week washout, subjects in the 1,000 mg cohort were administered a second 1,000 mg single dose following a high-fat breakfast. Six cohorts of 8 healthy subjects each were administered multiple doses of 75 mg […] (qd), 125 mg every 12 hours (q12 h), 500 mg q12 h, 500 mg qd, 750 mg qd, and 1,000 mg qd for 7 days in the MAD Part B (FIG. 1).

[3] = target: T1, glycolate oxidase (GO); assay: Phase 1 SAD/MAD study: plasma glycolate as measure of target engagement; assay type: in vivo
Experimental: Pharmacodynamics: Acidified human K2-EDTA plasma samples were analyzed for oxalic acid and glycolic acid by a validated method over a range of 8.00 to 120 μM for oxalic acid and 5.00 to 625 μM for glycolic acid based on the analysis of 50 μL of sample. Human plasma containing oxalic acid, glycolic acid and internal standards, ^13C2-oxalic acid and D2-glycolic acid, was derivatized after protein precipitation then extracted using liquid-liquid extraction and analyzed by a Sciex API 4000 LC-MS-MS equipped with an HPLC column. The peak area of the m/z 224.1→152.1 oxalic acid product ion was measured against the peak area of the m/z 226.1→152.1 13C2-oxalic acid internal standard product ion. The peak area of the m/z 210.1→107.0 glycolic acid product ion was measured against the peak area of the m/z 212.1→107.0 D2-glycolic acid internal standard product ion. Quantitation was performed using a weighted 1/x2 linear least squares regression analysis generated from calibration standards prepared on the day of extraction.
Pharmacodynamics of Compound 1a: As a measure of target engagement, plasma glycolate levels were assessed in Part A and Part B. In Part A, healthy adult volunteers received single doses of Compound 1a at 40, 120, 360, 1,000, 2,000, and 3,000 mg with increases in plasma glycolate observed (FIG. 3A). At all doses, mean maximal plasma glycolate concentrations exceeded the upper limit of normal (ULN) of 14 μM, reaching a mean maximum concentration of >90 μM at doses above 1,000 mg, which was sustained for 24 hours. Median time to recovery (plasma glycolate less than or equal to ULN) after a single dose was less than 72 hours.
In Part B, healthy adult volunteers received multiple doses of Compound 1a at 75 mg qd, 125 mg q12 h, 500 mg q12 h, 500 mg qd, 750 mg qd, and 1000 mg qd. As with Part A, mean maximal plasma glycolate concentrations exceeded the ULN at all doses on day 1 to a range of 50 to 100 μM and further increased on day 7 to a range of 100 to 200 μM.

[4] = Part A single ascending dose, 40 mg (n = 7)
[5] = Part A single ascending dose, 120 mg (n = 8)
[6] = Part A single ascending dose, 360 mg (n = 6)
[7] = Part A single ascending dose, 1,000 mg (n = 8)
[8] = Part A single ascending dose, 2,000 mg (n = 8)
[9] = Part B multiple ascending dose, 125 mg q12 h (n = 8)
[10] = Part B multiple ascending dose, 500 mg q12 h (n = 8)
[11] = Part B multiple ascending dose, 500 mg qd (n = 8)
[12] = Part A, single doses above 1,000 mg

## O.O=C([O-])c1nn[nH]c1Oc1ccc(-c2ccc(C3CC(F)(F)C3)cc2)cc1.[Na+] [Compound 1a, sodium 5-((4′-(3,3-difluorocyclobutyl)-[1,1′-biphenyl]-4-yl)oxy)-1H-1,2,3-triazole-4-carboxylate monohydrate]
[1]
  inhibition of GO: up to 97%
[2]; Part A and Part B
  AEs leading to study discontinuation: no AEs leading to study discontinuation
  dose-limiting toxicities: No dose-limiting toxicities were observed
  intensity of AEs: all were mild to moderate in intensity
  post dose electrocardiogram findings: nor were there clinically important post dose electrocardiogram findings
  safety laboratory tests: no clinically significant changes or trends observed
  serious or severe AEs: No serious or severe AEs were reported
[2]; [4]
  AEs: 10
  SAEs: 0
[2]; [5]
  AEs: 1
  SAEs: 0
[2]; [6]
  AEs: 0
  SAEs: 0
[2]; [7]
  AEs: 4
  SAEs: 0
[2]; [8]
  AEs: 3
  SAEs: 0
[2]; [9]
  AEs: 6
  SAEs: 0
[2]; [10]
  AEs: 12
  SAEs: 0
[2]; [11]
  AEs: 1
  SAEs: 0
[2]; single doses up to 3,000 mg and multiple doses up to 2,000 mg per day (1,000 mg qd)
  tolerability: well tolerated
[3]; FIG. 3 legend
  time to inhibition of glycolate oxidase (GO) with increased plasma glycolate concentrations: ≤ 2 h
[3]; Part A, all single doses 40 to 3,000 mg
  mean maximal plasma glycolate concentrations (exceeded ULN): > 14 µM
[3]; [12]
  duration for which mean maximum plasma glycolate concentration was sustained: 24 h
  mean maximum plasma glycolate concentration: > 90 µM
[3]; Part B, all doses
  levels of plasma glycolate compared with lumasiran: significantly higher than those observed with lumasiran at 3 mg/kg or 6 mg/kg
[3]; after a single dose
  Median time to recovery (plasma glycolate less than or equal to ULN): less than 72 hours
[3]; steady state, multiple doses
  plasma glycolate concentrations at steady state: comparable to those measured in case reports of individuals with germline HAO1 knockout
